Activity calls are given as the source filed them. The calls are words filed in the database; no cut-off is given here.
How the values were obtained:
[1] = target: T1, Lysine-specific demethylase 4A (Homo sapiens, UniProt O75164); assay: Inhibition of JMJD2A (unknown origin)
T1 sequence (O75164 whole entry): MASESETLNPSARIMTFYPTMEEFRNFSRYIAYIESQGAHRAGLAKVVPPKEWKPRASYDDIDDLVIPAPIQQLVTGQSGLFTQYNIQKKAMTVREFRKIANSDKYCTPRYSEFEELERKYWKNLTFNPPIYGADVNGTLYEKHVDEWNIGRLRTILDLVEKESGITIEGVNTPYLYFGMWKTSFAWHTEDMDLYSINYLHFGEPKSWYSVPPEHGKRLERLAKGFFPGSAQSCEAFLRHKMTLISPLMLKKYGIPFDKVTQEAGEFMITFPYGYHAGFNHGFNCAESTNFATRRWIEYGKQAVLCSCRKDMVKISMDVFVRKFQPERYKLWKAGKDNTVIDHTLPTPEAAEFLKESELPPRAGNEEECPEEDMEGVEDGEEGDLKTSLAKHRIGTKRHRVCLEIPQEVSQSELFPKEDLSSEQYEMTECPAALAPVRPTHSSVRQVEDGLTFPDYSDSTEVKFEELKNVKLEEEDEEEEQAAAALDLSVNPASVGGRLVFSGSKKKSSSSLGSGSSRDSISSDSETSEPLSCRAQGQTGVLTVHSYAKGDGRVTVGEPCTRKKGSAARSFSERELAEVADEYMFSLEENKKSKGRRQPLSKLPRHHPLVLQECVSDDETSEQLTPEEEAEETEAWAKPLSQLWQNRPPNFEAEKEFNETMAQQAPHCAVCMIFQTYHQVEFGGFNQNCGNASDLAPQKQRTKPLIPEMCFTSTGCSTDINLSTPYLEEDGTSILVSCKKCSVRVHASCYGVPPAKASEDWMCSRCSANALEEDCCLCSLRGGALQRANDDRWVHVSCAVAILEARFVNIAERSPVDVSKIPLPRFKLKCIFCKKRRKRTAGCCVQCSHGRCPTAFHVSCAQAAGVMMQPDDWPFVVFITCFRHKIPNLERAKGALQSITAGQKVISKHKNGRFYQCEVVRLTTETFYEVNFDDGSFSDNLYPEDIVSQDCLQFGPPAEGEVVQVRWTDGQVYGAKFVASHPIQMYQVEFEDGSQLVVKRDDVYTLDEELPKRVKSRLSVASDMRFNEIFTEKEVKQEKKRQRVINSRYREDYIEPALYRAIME

[2] = target: T2, Lysine-specific demethylase 6B (Homo sapiens, UniProt O15054); assay: Inhibition of recombinant 6xHis-tagged JMJD3 (unknown origin) expressed in Escherichia coli BL21
T2 sequence (O15054 whole entry): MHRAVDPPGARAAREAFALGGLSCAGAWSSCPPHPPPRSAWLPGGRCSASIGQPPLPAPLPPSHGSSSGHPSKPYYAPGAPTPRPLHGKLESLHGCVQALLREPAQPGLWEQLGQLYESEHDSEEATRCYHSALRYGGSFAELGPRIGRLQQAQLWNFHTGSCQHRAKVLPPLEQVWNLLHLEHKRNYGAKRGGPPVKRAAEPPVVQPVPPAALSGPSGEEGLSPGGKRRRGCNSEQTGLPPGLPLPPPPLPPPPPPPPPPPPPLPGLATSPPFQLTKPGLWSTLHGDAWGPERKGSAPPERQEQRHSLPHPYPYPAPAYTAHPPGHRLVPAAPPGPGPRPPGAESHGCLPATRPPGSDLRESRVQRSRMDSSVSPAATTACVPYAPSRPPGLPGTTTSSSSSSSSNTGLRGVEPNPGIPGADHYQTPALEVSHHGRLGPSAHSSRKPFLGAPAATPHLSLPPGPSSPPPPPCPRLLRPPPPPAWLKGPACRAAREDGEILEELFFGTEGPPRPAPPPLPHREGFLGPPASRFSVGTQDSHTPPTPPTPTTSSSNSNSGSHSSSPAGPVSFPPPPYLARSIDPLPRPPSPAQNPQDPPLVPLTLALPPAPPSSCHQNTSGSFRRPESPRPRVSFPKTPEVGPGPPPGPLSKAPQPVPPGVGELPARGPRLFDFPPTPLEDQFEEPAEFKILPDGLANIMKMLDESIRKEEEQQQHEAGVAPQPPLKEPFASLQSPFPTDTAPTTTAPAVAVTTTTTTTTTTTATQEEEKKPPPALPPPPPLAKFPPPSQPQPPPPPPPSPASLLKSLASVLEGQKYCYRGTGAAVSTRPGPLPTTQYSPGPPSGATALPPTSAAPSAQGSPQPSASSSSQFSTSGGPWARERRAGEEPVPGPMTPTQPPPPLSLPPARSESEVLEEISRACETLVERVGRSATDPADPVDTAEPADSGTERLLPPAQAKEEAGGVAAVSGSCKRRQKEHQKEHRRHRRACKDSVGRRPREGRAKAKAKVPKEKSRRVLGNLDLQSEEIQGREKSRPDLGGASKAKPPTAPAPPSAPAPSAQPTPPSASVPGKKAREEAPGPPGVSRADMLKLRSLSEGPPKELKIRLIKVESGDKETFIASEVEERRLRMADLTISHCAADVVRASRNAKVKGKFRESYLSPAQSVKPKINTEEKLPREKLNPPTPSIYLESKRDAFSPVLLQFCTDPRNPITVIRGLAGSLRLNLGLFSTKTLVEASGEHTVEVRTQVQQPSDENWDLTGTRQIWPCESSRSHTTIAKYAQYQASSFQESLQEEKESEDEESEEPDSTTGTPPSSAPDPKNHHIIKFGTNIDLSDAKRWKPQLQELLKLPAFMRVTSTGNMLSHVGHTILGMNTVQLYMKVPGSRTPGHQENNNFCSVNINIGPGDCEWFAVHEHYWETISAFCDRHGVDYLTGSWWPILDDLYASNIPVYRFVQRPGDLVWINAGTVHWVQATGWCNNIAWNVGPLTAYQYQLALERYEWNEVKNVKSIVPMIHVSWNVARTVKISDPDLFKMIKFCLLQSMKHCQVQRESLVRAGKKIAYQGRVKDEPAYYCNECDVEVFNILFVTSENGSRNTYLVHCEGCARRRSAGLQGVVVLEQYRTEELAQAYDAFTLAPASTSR

[3] = target: T3, Lysine-specific demethylase 2A (Homo sapiens, UniProt Q9Y2K7); assay: Inhibition of recombinant 6xHis-tagged JHDM1A (unknown origin) expressed in Escherichia coli BL21 using SAPATGGVK(Me2)KPHRYRPGTVAL as substrate incubated for 15 mins prior to substrate addition measured after 50 mins by rapid fire mass spectrophotometric analysis
T3 sequence (Q9Y2K7 whole entry): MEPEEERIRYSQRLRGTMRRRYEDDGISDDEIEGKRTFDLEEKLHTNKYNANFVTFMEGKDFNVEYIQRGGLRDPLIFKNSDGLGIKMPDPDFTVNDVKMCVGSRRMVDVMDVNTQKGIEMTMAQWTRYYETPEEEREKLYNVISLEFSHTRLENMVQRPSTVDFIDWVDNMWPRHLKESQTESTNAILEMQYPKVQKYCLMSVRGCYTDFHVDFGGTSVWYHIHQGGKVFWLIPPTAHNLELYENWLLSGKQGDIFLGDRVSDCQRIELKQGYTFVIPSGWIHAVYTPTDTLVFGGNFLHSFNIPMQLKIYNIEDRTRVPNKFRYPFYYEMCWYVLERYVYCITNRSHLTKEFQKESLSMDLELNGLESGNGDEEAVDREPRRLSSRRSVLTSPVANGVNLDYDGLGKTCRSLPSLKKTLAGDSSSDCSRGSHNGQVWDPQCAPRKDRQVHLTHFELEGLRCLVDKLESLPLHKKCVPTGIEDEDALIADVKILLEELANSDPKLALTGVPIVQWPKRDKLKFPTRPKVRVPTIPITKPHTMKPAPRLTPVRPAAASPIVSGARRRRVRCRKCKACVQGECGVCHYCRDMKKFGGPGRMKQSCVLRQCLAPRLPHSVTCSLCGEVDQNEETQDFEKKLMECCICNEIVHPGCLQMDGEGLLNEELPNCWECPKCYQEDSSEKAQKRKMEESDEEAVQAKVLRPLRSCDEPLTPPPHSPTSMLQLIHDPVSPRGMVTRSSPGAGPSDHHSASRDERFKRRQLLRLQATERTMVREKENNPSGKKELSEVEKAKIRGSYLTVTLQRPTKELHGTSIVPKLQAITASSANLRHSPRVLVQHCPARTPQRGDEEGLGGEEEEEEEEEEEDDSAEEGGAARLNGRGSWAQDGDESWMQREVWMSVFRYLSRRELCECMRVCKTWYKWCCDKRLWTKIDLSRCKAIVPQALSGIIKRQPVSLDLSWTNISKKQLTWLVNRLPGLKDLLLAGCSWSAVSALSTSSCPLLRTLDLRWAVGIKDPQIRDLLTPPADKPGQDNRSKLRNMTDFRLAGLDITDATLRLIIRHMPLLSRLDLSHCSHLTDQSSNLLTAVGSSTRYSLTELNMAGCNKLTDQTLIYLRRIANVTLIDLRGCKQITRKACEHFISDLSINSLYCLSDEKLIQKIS

[4] = target: T4, Lysine-specific demethylase 4A (Homo sapiens) (UniProt O75164); assay: Binding affinity to JMJD2A (unknown origin) up to 10 uM by fluorescence polarization assay
T4 sequence (whole entry): T1 sequence (O75164 whole entry)

[5] = target: T2, Lysine-specific demethylase 6B; assay: Binding affinity to recombinant 6xHis-tagged JMJD3 (unknown origin) expressed in Escherichia coli BL21 up to 10 uM by fluorescence polarization assay
[6] = target: T3, Lysine-specific demethylase 2A; assay: Binding affinity to recombinant 6xHis-tagged JHDM1A (unknown origin) expressed in Escherichia coli BL21 by fluorescence polarization assay in presence of Co2+
[7] = target: T3, Lysine-specific demethylase 2A; assay: Binding affinity to recombinant 6xHis-tagged JHDM1A (unknown origin) expressed in Escherichia coli BL21 by fluorescence polarization assay in presence of Ni2+
[8] = target: T3, Lysine-specific demethylase 2A; assay: Binding affinity to recombinant 6xHis-tagged JHDM1A (unknown origin) expressed in Escherichia coli BL21 by fluorescence polarization assay
[9] = target: T3, Lysine-specific demethylase 2A; assay: Binding affinity to recombinant 6xHis-tagged JHDM1A (unknown origin) expressed in Escherichia coli BL21 by fluorescence polarization assay in presence of Fe2+ and sodium ascorbate

| SMILES | IC50 [1] | IC50 [2] | IC50 [3] | Activity [4] | Activity [5] | Kd [6] | Kd [7] | Kd [8] | Kd [9] |
| --- | --- | --- | --- | --- | --- | --- | --- | --- | --- |
| O=C(O)/C=C/C(=O)N(O)CCCCNCc1ccc(COC(=O)Nc2cccc3ccccc23)cc1 | 3300 nM | 3100 nM |  |  |  |  |  |  |  |
| NCc1ccc(CNCCCCN(O)C(=O)/C=C/C(=O)O)cc1 | 2400 nM | 7300 nM | 420 nM |  |  |  |  |  |  |
| NCc1ccc(CN(CCCCN(O)C(=O)/C=C/C(=O)O)C(=S)Nc2ccc(-c3c4ccc(=O)cc-4oc4cc(O)ccc34)c(C(=O)O)c2)cc1 | 23500 nM | 9500 nM | 900 nM | Active | Active | 22 nM | 9.3 nM | 19 nM | 8.6 nM |

From ChEMBL document CHEMBL2390894, “Quantitative analysis of histone demethylase probes using fluorescence polarization” (J Med Chem, 2013)
